{"source": "ChEMBL document CHEMBL1158510", "about": "“Hybrid anticancer agents: isothiocyanate-progesterone conjugates as chemotherapeutic agents and insights into their cytotoxicities” (Bioorg Med Chem Lett, 2010)", "type_in_all_cases": "functional, cell-based", "key": {"MCF7": {"test_system": "MCF7", "test": "Cytotoxicity against human MCF7 cells after 72 hrs by MTT assay", "details": "MCF7, 72 h"}, "BT-20": {"test_system": "BT-20", "test": "Cytotoxicity against human BT20 cells after 72 hrs by MTT assay", "details": "BT-20, 72 h"}, "MDA-MB-231": {"test_system": "MDA-MB-231", "test": "Cytotoxicity against human MDA-MB-231 cells after 72 hrs by MTT assay", "details": "MDA-MB-231, 72 h"}, "PC-3": {"test_system": "PC-3", "test": "Cytotoxicity against human PC3 cells after 72 hrs by MTT assay", "details": "PC-3, 72 h"}}}
{"smiles": "CC(=O)[C@H]1CC[C@H]2[C@@H]3CCC4=C/C(=N/NC(N)=S)CC[C@]4(C)[C@H]3CC[C@]12C", "values": [{"measurement": "IC50", "setting": "MCF7", "value": 20, "unit": "µM"}, {"measurement": "IC50", "setting": "BT-20", "value": 5.3, "unit": "µM"}, {"measurement": "IC50", "setting": "MDA-MB-231", "value": 25, "unit": "µM"}, {"measurement": "IC50", "setting": "PC-3", "value": 16, "unit": "µM"}]}
